For two compounds, Ki results are on record in ChEMBL document CHEMBL1275404, “Disulfide cyclized tripeptide analogues of angiotensin IV as potent and selective inhibitors of insulin-regulated aminopeptidase (IRAP)” (J Med Chem, 2010).

The target of this assay is Aminopeptidase N (Homo sapiens, UniProt P15144). In words: Inhibition of catalytic activity of human recombinant aminopeptidase N expressed in HEK293 cells. It counts as cell-based.
Sequence of Aminopeptidase N (P15144 whole entry): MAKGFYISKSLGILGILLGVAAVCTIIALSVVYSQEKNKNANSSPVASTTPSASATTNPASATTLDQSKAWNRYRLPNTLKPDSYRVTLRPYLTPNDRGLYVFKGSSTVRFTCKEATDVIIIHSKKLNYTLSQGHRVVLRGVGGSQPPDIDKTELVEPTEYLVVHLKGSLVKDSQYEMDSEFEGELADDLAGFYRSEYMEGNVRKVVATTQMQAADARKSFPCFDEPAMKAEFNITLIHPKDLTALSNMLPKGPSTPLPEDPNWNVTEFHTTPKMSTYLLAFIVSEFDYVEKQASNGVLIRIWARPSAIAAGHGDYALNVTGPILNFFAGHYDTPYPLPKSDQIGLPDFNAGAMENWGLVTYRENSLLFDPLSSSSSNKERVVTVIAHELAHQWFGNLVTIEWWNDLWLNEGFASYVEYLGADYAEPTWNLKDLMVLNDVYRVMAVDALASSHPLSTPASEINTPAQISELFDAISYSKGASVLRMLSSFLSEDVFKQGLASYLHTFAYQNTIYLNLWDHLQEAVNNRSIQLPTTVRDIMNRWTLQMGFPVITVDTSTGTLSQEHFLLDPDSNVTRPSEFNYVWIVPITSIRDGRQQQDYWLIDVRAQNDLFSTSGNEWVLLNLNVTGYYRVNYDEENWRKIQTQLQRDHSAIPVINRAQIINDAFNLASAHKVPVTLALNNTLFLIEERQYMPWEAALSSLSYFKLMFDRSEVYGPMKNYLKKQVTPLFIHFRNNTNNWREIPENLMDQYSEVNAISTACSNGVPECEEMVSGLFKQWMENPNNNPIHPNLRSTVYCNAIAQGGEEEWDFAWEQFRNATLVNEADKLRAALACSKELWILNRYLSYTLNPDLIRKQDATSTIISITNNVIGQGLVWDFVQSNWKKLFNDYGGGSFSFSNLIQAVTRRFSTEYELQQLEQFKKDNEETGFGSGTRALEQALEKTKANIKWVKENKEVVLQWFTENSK

Regarding `N[C@H]1CCSSC[C@@H](C(=O)NCc2ccccc2CC(=O)O)NC(=O)C[C@H](Cc2ccc(O)cc2)NC1=O`, the Ki (commonly a measure of affinity in units of concentration, obtained from inhibition or displacement) stood at 7.25 µM.
As to `N[C@H]1CCSSC[C@H](C(=O)NCc2ccccc2CC(=O)O)NC(=O)C[C@H](Cc2ccc(O)cc2)NC1=O`, the Ki was determined as 10.8 µM.
